{"source": "BigSolDB 2.1"}
{"smiles": "CCCCCCOC(=O)NC(=N)c1ccc(NCc2nc3cc(C(=O)N(CCC(=O)OCC)c4ccccn4)ccc3n2C)cc1.CS(=O)(=O)O", "values": [{"measurement": "solubility (mole fraction)", "setting": "in DMAc, 287.37 K", "result": 0.0228}, {"measurement": "solubility (mole fraction)", "setting": "in DMAc, 292.2 K", "result": 0.0241}, {"measurement": "solubility (mole fraction)", "setting": "in DMAc, 297.95 K", "result": 0.0264}, {"measurement": "solubility (mole fraction)", "setting": "in DMAc, 303.97 K", "result": 0.0285}, {"measurement": "solubility (mole fraction)", "setting": "in DMAc, 308.88 K", "result": 0.0311}, {"measurement": "solubility (mole fraction)", "setting": "in DMAc, 313.59 K", "result": 0.0338}, {"measurement": "solubility (mole fraction)", "setting": "in DMAc, 318.4 K", "result": 0.0372}, {"measurement": "solubility (mole fraction)", "setting": "in DMAc, 323.39 K", "result": 0.0403}, {"measurement": "solubility (mole fraction)", "setting": "in DMF, 287.37 K", "result": 0.0217}, {"measurement": "solubility (mole fraction)", "setting": "in DMF, 292.2 K", "result": 0.0229}, {"measurement": "solubility (mole fraction)", "setting": "in DMF, 297.95 K", "result": 0.0246}, {"measurement": "solubility (mole fraction)", "setting": "in DMF, 303.97 K", "result": 0.0269}, {"measurement": "solubility (mole fraction)", "setting": "in DMF, 308.88 K", "result": 0.0294}, {"measurement": "solubility (mole fraction)", "setting": "in DMF, 313.59 K", "result": 0.0318}, {"measurement": "solubility (mole fraction)", "setting": "in DMF, 318.4 K", "result": 0.035}, {"measurement": "solubility (mole fraction)", "setting": "in DMF, 323.39 K", "result": 0.0385}, {"measurement": "solubility (mole fraction)", "setting": "in ethanol, 287.37 K", "result": 0.00092}, {"measurement": "solubility (mole fraction)", "setting": "in ethanol, 292.2 K", "result": 0.00116}, {"measurement": "solubility (mole fraction)", "setting": "in ethanol, 297.95 K", "result": 0.00153}, {"measurement": "solubility (mole fraction)", "setting": "in ethanol, 303.97 K", "result": 0.00208}, {"measurement": "solubility (mole fraction)", "setting": "in ethanol, 308.88 K", "result": 0.00267}, {"measurement": "solubility (mole fraction)", "setting": "in ethanol, 313.59 K", "result": 0.00343}, {"measurement": "solubility (mole fraction)", "setting": "in ethanol, 318.4 K", "result": 0.00458}, {"measurement": "solubility (mole fraction)", "setting": "in ethanol, 323.39 K", "result": 0.00626}, {"measurement": "solubility (mole fraction)", "setting": "in ethylene glycol, 287.37 K", "result": 0.00425}, {"measurement": "solubility (mole fraction)", "setting": "in ethylene glycol, 292.2 K", "result": 0.00524}, {"measurement": "solubility (mole fraction)", "setting": "in ethylene glycol, 297.95 K", "result": 0.00619}, {"measurement": "solubility (mole fraction)", "setting": "in ethylene glycol, 303.97 K", "result": 0.00786}, {"measurement": "solubility (mole fraction)", "setting": "in ethylene glycol, 308.88 K", "result": 0.00961}, {"measurement": "solubility (mole fraction)", "setting": "in ethylene glycol, 313.59 K", "result": 0.0112}, {"measurement": "solubility (mole fraction)", "setting": "in ethylene glycol, 318.4 K", "result": 0.0143}, {"measurement": "solubility (mole fraction)", "setting": "in ethylene glycol, 323.39 K", "result": 0.0179}, {"measurement": "solubility (mole fraction)", "setting": "in methanol, 287.37 K", "result": 0.0158}, {"measurement": "solubility (mole fraction)", "setting": "in methanol, 292.2 K", "result": 0.018}, {"measurement": "solubility (mole fraction)", "setting": "in methanol, 297.95 K", "result": 0.0224}, {"measurement": "solubility (mole fraction)", "setting": "in methanol, 303.97 K", "result": 0.0274}, {"measurement": "solubility (mole fraction)", "setting": "in methanol, 308.88 K", "result": 0.0333}, {"measurement": "solubility (mole fraction)", "setting": "in methanol, 313.59 K", "result": 0.0389}, {"measurement": "solubility (mole fraction)", "setting": "in methanol, 318.4 K", "result": 0.0471}, {"measurement": "solubility (mole fraction)", "setting": "in methanol, 323.39 K", "result": 0.055}]}
